In US9562031B1, “Phenethyldihydrobenzodioxolones and methods of use” (Sequoia Sciences, Inc., priority 2015, dated 2017):

Assays:
DLD-1 cells = assay: antiproliferation assay, paclitaxel-resistant DLD-1; assay type: cell-based; conditions: Homo sapiens
Experimental: For the antiproliferation assay, NCI-H460 (large cell lung carcinoma) or M14 (amelanotic melanoma) cells were grown in RPMI-1640 with 10% FBS supplemented with L-glutamine and HEPES. Cells were seeded into 96-well plates at 5×10^2 to 5×10^4 cells/well and allowed to adhere overnight; the medium was then removed. A stock solution of test compound in DMSO was diluted in medium to generate a series of working solutions. Aliquots (100 μl) of the working solutions were then added to the appropriate test wells to expose cells to the final concentrations of compound in a total volume of 100 μl. Seven different concentrations were tested, with 2-5 wells per concentration. Camptothecin was used as a positive control; wells containing vehicle without compound were used as negative controls. Plates were kept for 72 h in a 37° C., 5% CO2 incubator. After incubation, viable cells were detected with the CELLTITER 96 AQueous Non-Radioactive Cell Proliferation Assay (Promega), and IC50 values were determined using GraphPad Prism 5 software.
Compound 4 was tested for antiproliferation activity against several paclitaxel-resistant human cancer cell lines.

[1] = compound concentrations in mouse plasma after IP injection (LC/MS); assay type: in vivo; conditions: mice, IP 40 mg/kg, 3-5 h after injection; vehicle 42.97% propylene glycol, 0.23% TWEEN-20, 31.5% PEG400, 15.3% ethanol, 10% water
Experimental: The bioavailabilities of certain compounds were examined in mice. Administration of the compounds was performed by intraperitoneal (IP) injection using a vehicle as known to those skilled in the art. To measure compound concentrations in plasma, blood is collected by cardiac puncture at a specified time after […]. It is then centrifuged in a plasma separator tube with NaEDTA/NaF as the anticoagulant, and the resulting plasma is stored at −80° C. For analysis, an internal standard is added to a 200 μL aliquot of plasma, and the aliquot is extracted with ethyl acetate. The ethyl acetate extract is analyzed by LC/MS and quantitated using a standard curve prepared by adding known amounts of test compound and internal standard to 200 μL aliquots of blank mouse plasma.
Many vehicles can be used to examine bioavailability. […]
Plasma concentrations were measured for several additional compounds. Table 12 lists plasma concentrations (as a multiple of the compound's IC50 against NCI-H460 cells) measured for these compounds at different time points after injection, along with the vehicle used.

[2] = system: NCI-H522 (lung) xenograft tumors; assay: tumor growth inhibition, NCI-H522 murine xenograft model; assay type: in vivo, mice; conditions: IP 40 mg/kg, days 0,1,2,5,6,7,10,11,12
Experimental: (§1) Tumor growth inhibition of compound 4 was measured in several murine xenograft models, and the results of individual experiments are listed in Table 14. Tumors were initiated by subcutaneous injection of either tumor cells from cell culture or tumor fragments from continuous in vivo passage. When tumors reached volumes between approximately 100 and 200 mm^3, the mice were divided into vehicle and treatment groups. Compound or vehicle was administered by IP injection in a volume of 5-10 mL/kg.
(§2) Changes in tumor weight (delta weights) for each treated (T) and control (C) group are calculated for each day tumors are measured by subtracting the median tumor weight on the first day of treatment (staging day) from the median tumor weight on the specified observation day. These values are used to calculate a percent T/C as follows: % T/C=(delta T/delta C)×100. The optimal T/C is the minimal value obtained after the first treatment.

[3] = system: NCI-H727 xenograft tumors; assay: tumor growth inhibition, NCI-H727 murine xenograft model; assay type: in vivo, mice; conditions: IP 40 mg/kg, days 0,1,2,5,6,7,10,11,12
Experimental: as §1, §2

[4] = system: LOX-IMVI (melanoma) xenograft tumors; assay: tumor growth inhibition, LOX-IMVI murine xenograft model; assay type: in vivo, mice
Experimental: as §1, §2

HL-60 cells = assay: NCI-60 panel antiproliferation, HL-60; assay type: cell-based, human; conditions: Homo sapiens, NCI 60-cell panel
Experimental: (§3) Bifidenone and Compound 37 were tested for antiproliferation activity against the NCI-60 panel of cancer cell lines. COMPARE analysis was then conducted to compare the activity “fingerprint” of bifidenone to those of known classes of compounds (Zhou, B.-N., Hoch, J. M., Johnson, R. K., Mattern, M. R., Eng, W.-K., Ma, J., Hecht, S. M., Newman, D. J., Kingston, D. G. I., 2000. Use of COMPARE Analysis to Discover New Natural Product Drugs: Isolation of Camptothecin and 9-Methoxycamptothecin from a New Source. Journal of Natural Products 63, 1273-1276.).

HOP-92 cells = assay: NCI-60 panel antiproliferation, HOP-92; assay type: cell-based, human; conditions: Homo sapiens, NCI 60-cell panel
Experimental: as §3

M14 cells = assay: NCI-60 panel antiproliferation, M14; assay type: cell-based, human; conditions: Homo sapiens, NCI 60-cell panel
Experimental: as §3

MALME-3M cells = assay: NCI-60 panel antiproliferation, MALME-3M; assay type: cell-based, human; conditions: Homo sapiens, NCI 60-cell panel
Experimental: as §3

MDA-MB-231 cells = assay: NCI-60 panel antiproliferation, MDA-MB-231; assay type: cell-based, human; conditions: Homo sapiens, NCI 60-cell panel
Experimental: as §3

MOLT-4 cells = assay: NCI-60 panel antiproliferation, MOLT-4; assay type: cell-based, human; conditions: Homo sapiens, NCI 60-cell panel
Experimental: as §3

NCI-H522 cells = assay: NCI-60 panel antiproliferation, NCI-H522; assay type: cell-based, human; conditions: Homo sapiens, NCI 60-cell panel
Experimental: as §3

RPMI-8226 cells = assay: NCI-60 panel antiproliferation, RPMI-8226; assay type: cell-based, human; conditions: Homo sapiens, NCI 60-cell panel
Experimental: as §3

UACC-257 cells = assay: NCI-60 panel antiproliferation, UACC-257; assay type: cell-based, human; conditions: Homo sapiens, NCI 60-cell panel
Experimental: as §3

[5] = IP 30 mg/kg, days 0,1,2,3,4,5,6

C=CC[C@H]1C[C@]2([C@H](C)Cc3cc(O)c(OC)cc3F)OCOC2=CC1=O (relative stereo) [Compound 4, 6-allyl-7a-(1-(2-fluoro-5-hydroxy-4-methoxyphenyl)propan-2-yl)-7,7a-dihydrobenzo[d][1,3]dioxol-5(6H)-one]
IC50 (DLD-1 cells): < 5 nM
plasma concentration relative to IC50 against NCI-H460 [1]: below its IC50
Maximum Mean Body Weight Loss [2]: 5%
Optimal T/C [2]: 13%
Maximum Mean Body Weight Loss [3]: 0%
Optimal T/C [3]: 30%
Maximum Mean Body Weight Loss ([4]; IP 30 mg/kg, days 0,1,2,3,4,5): 7%
Optimal T/C ([4]; IP 30 mg/kg, days 0,1,2,3,4,5): 31%
Maximum Mean Body Weight Loss [4, 5]: 6%
Optimal T/C [4, 5]: 36%
Maximum Mean Body Weight Loss ([4]; IP 40 mg/kg, days 0,1,2,5,6,7): 9%
Optimal T/C ([4]; IP 40 mg/kg, days 0,1,2,5,6,7): 39%

C=CC[C@H]1C[C@]2([C@@H](C)Cc3ccc(OC)c(F)c3)OCOC2=CC1=O [Compound 37, (6S,7aR)-6-allyl-7a-((S)-1-(3-fluoro-4-methoxyphenyl)propan-2-yl)-7,7a-dihydrobenzo[d][1,3]dioxol-5(6H)-one]
IC50 (HL-60 cells): 36 nM
IC50 (HOP-92 cells): > 10000 nM
IC50 (M14 cells): 59 nM
IC50 (MALME-3M cells): 39 nM
IC50 (MDA-MB-231 cells): 837 nM
IC50 (MOLT-4 cells): 97 nM
IC50 (NCI-H522 cells): 61 nM
IC50 (RPMI-8226 cells): 74 nM
IC50 (UACC-257 cells): 43 nM
